Results: patent US7153869B2, “Substituted amino acids as erythropoietin mimetics” (priority 1998, dated 2006)

Target: T1, EBP-Ig (N-terminal 225 amino acids of the human EPO receptor joined to an Ig heavy chain) (Homo sapiens, UniProt P19235)
T1 construct: Ig heavy chain (fusion partner); made in house; host or cells: NSO cells (secreted into conditioned media)
T1 sequence (P19235 25-250 limits assumed): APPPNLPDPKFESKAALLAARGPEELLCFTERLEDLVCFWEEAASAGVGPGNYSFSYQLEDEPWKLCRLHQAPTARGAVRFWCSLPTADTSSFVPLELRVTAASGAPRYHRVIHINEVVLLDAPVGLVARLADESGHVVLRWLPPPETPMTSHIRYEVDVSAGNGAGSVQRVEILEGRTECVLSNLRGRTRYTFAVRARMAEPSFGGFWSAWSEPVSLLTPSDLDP
Assay: Inhibition of [125I]EPO binding to immobilized EBP-Ig (EPO binding protein-Ig), scintillation Flash plate competition assay
Conditions: for % inh @ 50 μM (Inhibition of EPO binding to EBP-Ig): 50 μM test compound, average % inhibition

COC(=O)C(CCC(=O)OC(C)(C)C)N(C/C=C/c1cccc2ccccc12)C/C=C/c1cccc2ccccc12 (centres unmarked) [compound 95]
EPO/EBP-Ig % inh @ 50 μM (Table 6, 50 μM): 15%

COC(=O)C(CCCCN)N(C/C=C/c1cccc(Oc2ccccc2)c1)Cc1cccc(Oc2ccccc2)c1 (centres unmarked) [compound 137]
IC50: 30 µM | IC30 μM (Inhibition of EPO binding to EBP-Ig) (0.5 nM [125I]EPO, 0–500 μM test compound): 5 µM | inhibition at 50 µM (read-out: % inh @ 50 μM (Inhibition of EPO binding to EBP-Ig)): 60%

Cc1ccc(C(=O)Nc2cccc(CN(Cc3cccc(NC(=O)c4ccc(C)cc4)c3)C(CC(=O)O)C(=O)O)c2)cc1 (centres unmarked) [cpd 64, N,N-bis(3-(4-Methylbenzoyl)aminobenzyl)Asp-OH]
EPO/EBP-Ig % inh @ 50 μM (Table 4, 50 μM): −4%

CCOC(=O)CCC(C(=O)OC)N(C/C=C/c1cccs1)C/C=C/c1cccs1 (centres unmarked) [compound 60]
EPO/EBP-Ig % inh @ 50 μM (Table 3, 50 μM): 9%

O=C(O)CCC(C(=O)O)N(CC=Cc1cccs1)CC=Cc1cccs1 (centres unmarked) [compound 52]
EPO/EBP-Ig % inh @ 50 μM (Table 3, 50 μM): 21%

CC(C)(C)OC(=O)NCCCCC(C(=O)NCCCCCCCCCCCCNC(=O)C(CCCCNC(=O)OC(C)(C)C)N(Cc1ccc(OCc2ccccc2)cc1)Cc1ccc(OCc2ccccc2)cc1)N(Cc1ccc(OCc2ccccc2)cc1)Cc1ccc(OCc2ccccc2)cc1 (centres unmarked) [compound 259]
EPO/EBP-Ig % inh @ 50 μM (50 μM compound, Table 13): −13%

C[C@H](O)[C@H](NC/C=C/c1ccc(C(F)(F)F)cc1)C(=O)O.O=C(O)C(F)(F)F [compound 358]
EPO/EBP-Ig % inh @ 50 μM (50 μM compound): 0%

COC(=O)[C@H](COC(C)(C)C)NC/C=C/c1cccc(Oc2cccc(C(F)(F)F)c2)c1 [compound 355]
EPO/EBP-Ig % inh @ 50 μM (50 μM compound, Table 20A): 22%

COc1ccc(C(=O)Nc2ccc(/C=C/CN(Cc3ccc(OCc4ccccc4)cc3)C(CCC(=O)O)C(=O)O)cc2)cc1 (centres unmarked) [compound 82]
% inh @ 50 μM (Inhibition of EPO binding to EBP-Ig) (0.5 nM [125I]EPO): 32% | EPO/EBP-Ig % inh @ 50 μM (Table 5, 50 μM): 32%

COc1ccc(CCNC(=O)C(CCCCNC(=O)Nc2ccc(Oc3ccccc3)cc2)N(C/C=C/c2ccccc2)C/C=C/c2ccccc2)cc1 (centres unmarked) [compound 229]
EPO/EBP-Ig % inh @ 50 μM (50 μM compound, Table 10): 22%

COC(=O)[C@H](CCCCNC(=O)OCc1ccccc1)NC/C=C/c1ccccc1 [compound 318]
EPO/EBP-Ig % inh @ 50 μM (50 μM compound, Table 18A): 14%

COC(=O)[C@H](CO)NC/C=C/c1cccc(Oc2ccc(Cl)c(Cl)c2)c1.O=C(O)C(F)(F)F [compound 345]
EPO/EBP-Ig % inh @ 50 μM (50 μM compound, Table 20A): 40%

COC(=O)C(CCCCNC(=O)OCc1ccccc1)N(C/C=C/c1ccc(OC)cc1)C/C=C/c1ccc(OC)cc1 (centres unmarked) [compound 174]
EPO/EBP-Ig % inh @ 50 μM (50 μM compound, Table 9): 23%

COC(=O)C(CCCCNC(=O)OC(C)(C)C)N(C/C=C/c1cccc(Oc2ccccc2)c1)C/C=C/c1cccc(Oc2ccccc2)c1 (centres unmarked) [compound 180]
EPO/EBP-Ig % inh @ 50 μM (50 μM compound, Table 9): −4%

CC(C)(C)c1ccc(Oc2cccc(/C=C/CN[C@@H](CCC(=O)O)C(=O)O)c2)cc1.O=C(O)C(F)(F)F [compound 331]
EPO/EBP-Ig % inh @ 50 μM (50 μM compound, Table 19A): 18%

COC(=O)[C@H](Cc1ccccc1)NC/C=C/c1ccccc1 [compound 360]
EPO/EBP-Ig % inh @ 50 μM (50 μM compound): 18%

CC(C)(C)OC[C@@H](C(=O)O)N(C/C=C/c1cccc(Oc2ccc(Cl)c(Cl)c2)c1)C/C=C/c1cccc(Oc2ccc(Cl)c(Cl)c2)c1 [compound 302]
EPO/EBP-Ig % inh @ 50 μM (50 μM compound, Table 16A): 30%

COC(=O)C(CCCCN)N(Cc1ccc(OCc2ccccc2)cc1)Cc1cccc(NC(=O)c2ccncc2)c1 (centres unmarked) [compound 120]
% inh @ 50 μM (Inhibition of EPO binding to EBP-Ig) (0.5 nM [125I]EPO): 35% | EPO/EBP-Ig % inh @ 50 μM (Table 7, 50 μM): 35%

COC(=O)C(CCC(=O)O)N(C/C=C/c1cccc(Oc2ccc(Cl)c(Cl)c2)c1)C/C=C/c1cccc(Oc2ccc(Cl)c(Cl)c2)c1 (centres unmarked) [compound 101]
% inh @ 50 μM (Inhibition of EPO binding to EBP-Ig) (0.5 nM [125I]EPO): 32% | EPO/EBP-Ig % inh @ 50 μM (Table 6, 50 μM): 32%

COC(=O)[C@H](COC(C)(C)C)N(C/C=C/c1cccc(Oc2cccc(C(F)(F)F)c2)c1)C/C=C/c1cccc(Oc2cccc(C(F)(F)F)c2)c1 [compound 292]
EPO/EBP-Ig % inh @ 50 μM (50 μM compound, Table 16A): 11%

CC(C)(C)OC(=O)CC[C@H](NC/C=C/c1cccc(Oc2ccc(C(C)(C)C)cc2)c1)C(=O)OC(C)(C)C [compound 339]
EPO/EBP-Ig % inh @ 50 μM (50 μM compound, Table 19A): 10%
